In patent US8940731B2, “Substituted pyridyl amide compounds as modulators of the histamine H3 receptor” (Janssen Pharmaceutica NV, priority 2006, dated 2015):
Counter-ions that a name gives are not always drawn. Like-named read-outs stand apart in the source and are kept apart here.

Key:
[1] = molecular target: T1, cloned human H3 receptors (Homo sapiens, UniProt Q9Y5N1); assay: H3 Receptor Binding (Human); conditions: cloned human H3 receptors stably expressed in SK-N-MC cells; average of the results obtained; read-out: Human H3 Ki
T1 construct: expressed in transfected cells
T1 sequence (Q9Y5N1 whole entry): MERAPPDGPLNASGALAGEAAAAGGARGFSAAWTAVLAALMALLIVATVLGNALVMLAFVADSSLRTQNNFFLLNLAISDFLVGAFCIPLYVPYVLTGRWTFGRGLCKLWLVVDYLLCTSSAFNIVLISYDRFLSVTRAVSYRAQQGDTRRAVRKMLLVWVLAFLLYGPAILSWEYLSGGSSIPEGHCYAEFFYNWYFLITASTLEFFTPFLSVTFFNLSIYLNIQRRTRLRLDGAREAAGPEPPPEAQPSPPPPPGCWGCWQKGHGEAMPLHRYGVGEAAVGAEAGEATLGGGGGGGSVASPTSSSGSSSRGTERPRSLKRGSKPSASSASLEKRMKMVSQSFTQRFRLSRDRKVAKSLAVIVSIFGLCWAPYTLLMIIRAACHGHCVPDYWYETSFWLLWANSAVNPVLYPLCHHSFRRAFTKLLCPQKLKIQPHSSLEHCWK
Protocol: H3 Receptor Binding (Human)
Binding of compounds to the cloned human H3 receptors, stably expressed in SK-N-MC cells, was performed as described by Barbier, A. J. et al. (Br. J. Pharmacol. 2004, 143(5), 649-661).

[2] = molecular target: T2, Rat H3 (Rattus norvegicus, UniProt Q9QYN8); assay: H3 Receptor Binding (Rat); conditions: rat brain membranes without cerebellum, 0.8 nM N-[3H]-α-methylhistamine, 60 min at 25° C.; average of the results obtained
Protocol: H3 Receptor Binding (Rat)
A rat brain without cerebellum (Zivic Laboratories Inc., Pittsburgh, Pa.) was homogenized in 50 mM Tris-HCl/5 mM EDTA and centrifuged at 1,000 rpm for 5 min. The supernatant was removed and recentrifuged at 15,000 rpm for 30 min. Pellets were rehomogenized in 50 mM Tris/5 mM EDTA (pH 7.4). Membranes were incubated with 0.8 nM N-[^3H]-α-methylhistamine plus/minus test compounds for 60 min at 25° C. and harvested by rapid filtration over GF/C glass fiber filters (pretreated with 0.3% polyethylenimine) followed by four washes with buffer. Nonspecific binding was defined in the presence of 100 μM histamine.
Target sequence in this assay (Q9QYN8 1-397 isoform Q9QYN8-3): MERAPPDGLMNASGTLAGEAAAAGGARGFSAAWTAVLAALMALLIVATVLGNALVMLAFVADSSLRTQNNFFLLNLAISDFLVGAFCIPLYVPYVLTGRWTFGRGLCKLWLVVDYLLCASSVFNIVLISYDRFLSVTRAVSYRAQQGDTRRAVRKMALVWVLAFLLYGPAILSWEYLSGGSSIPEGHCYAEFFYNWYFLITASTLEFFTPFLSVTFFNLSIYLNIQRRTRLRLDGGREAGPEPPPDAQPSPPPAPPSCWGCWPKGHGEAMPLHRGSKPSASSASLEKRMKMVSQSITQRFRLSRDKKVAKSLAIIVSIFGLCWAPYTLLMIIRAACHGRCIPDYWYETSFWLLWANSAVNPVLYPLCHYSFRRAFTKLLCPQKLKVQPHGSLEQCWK

[3] = molecular target: T2, Rat H3; assay: cell-based
Description: (§1) Sublines of SK-N-MC cells were created that expressed a reporter construct and either the human or rat H3 receptor.
Target sequence in this assay (Q9QYN8 whole entry): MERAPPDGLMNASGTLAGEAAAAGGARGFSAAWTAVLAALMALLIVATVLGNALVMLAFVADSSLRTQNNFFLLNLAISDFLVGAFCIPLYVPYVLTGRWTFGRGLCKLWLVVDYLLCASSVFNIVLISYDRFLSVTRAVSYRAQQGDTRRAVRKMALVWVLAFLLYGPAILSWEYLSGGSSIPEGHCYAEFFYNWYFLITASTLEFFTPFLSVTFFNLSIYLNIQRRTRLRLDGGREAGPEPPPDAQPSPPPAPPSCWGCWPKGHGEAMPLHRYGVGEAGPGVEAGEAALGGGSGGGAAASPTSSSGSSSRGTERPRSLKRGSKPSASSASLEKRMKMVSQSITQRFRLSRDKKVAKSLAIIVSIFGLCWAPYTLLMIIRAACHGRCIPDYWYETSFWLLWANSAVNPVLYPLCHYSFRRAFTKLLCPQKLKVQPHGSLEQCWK

[4] = molecular target: T3, human H3 receptor (Homo sapiens, UniProt Q9Y5N1); assay: Cyclic AMP Accumulation (human H3 receptor); assay type: cell-based
T3 construct: expressed in transfected cells; host or cells: SK-N-MC sublines with a reporter construct
T3 sequence (Q9Y5N1 whole entry): as the sequence (Q9Y5N1 whole entry) above
Description: as §1

[5] = SK-N-MC subline expressing reporter construct and rat H3 receptor, average
[6] = SK-N-MC subline expressing reporter construct and human H3 receptor, average
[7] = SK-N-MC subline expressing reporter construct and rat H3 receptor, average, read-out: Rat pA2 (converted)
[8] = SK-N-MC subline expressing reporter construct and human H3 receptor, average, read-out: Human pA2 (converted)

Row | Human pA2 [4, 6] | Kb [3, 7] [nM] | Kb [4, 8] [nM] | Compound | Ki [1] [nM] | Ki [2] [nM] | Kb [3] [nM] | Kb [4] [nM] | Rat pA2 [3, 5]
1 | – | – | – | O=C(c1ccc(Oc2ccc(Cl)c(Cl)c2)nc1)N1CCCN(C2CC2)CC1 [Example 9, (4-Cyclopropyl-[1,4]diazepan-1-yl)-[6-(3,4-dichloro-phenoxy)-pyridin-3-yl]-methanone] | 11 | 130 | 44.7 | 8.71 | –
2 | – | 4.37 | 0.708 | O=C(c1ccc(Oc2cccc(Cl)c2)nc1)N1CCCN(C2CCC2)CC1 [Example 24, [6-(3-Chloro-phenoxy)-pyridin-3-yl]-(4-cyclobutyl-[1,4]diazepan-1-yl)-methanone] | 1 | 15 | – | – | –
3 | 9.22 | 3.8 | – | O=C(c1ccc(Oc2ccc(Cl)cc2)nc1)N1CCCN(C2CCC2)CC1 [Example 25, [6-(4-Chloro-phenoxy)-pyridin-3-yl]-(4-cyclobutyl-[1,4]diazepan-1-yl)-methanone] | 1 | 25 | – | – | –
4 | – | – | – | O=C(c1ccc(Oc2ccc(F)c(F)c2)nc1)N1CCCN(C2CCC2)CC1 [Example 26, (4-Cyclobutyl-[1,4]diazepan-1-yl)-[6-(3,4-difluoro-phenoxy)-pyridin-3-yl]-methanone] | 1 | 16 | 2.14 | 0.229 | –
5 | – | – | – | O=C(c1ccc(Oc2ccccc2F)nc1)N1CCCN(C2CCC2)CC1 [Example 29, (4-Cyclobutyl-[1,4]diazepan-1-yl)-[6-(2-fluoro-phenoxy)-pyridin-3-yl]-methanone] | 1 | 20 | 3.55 | 0.813 | –
6 | – | – | – | O=C(c1ccc(Oc2ccc(F)cc2F)nc1)N1CCCN(C2CCC2)CC1 [Example 30, (4-Cyclobutyl-[1,4]diazepan-1-yl)-[6-(2,4-difluoro-phenoxy)-pyridin-3-yl]-methanone] | 1 | 26 | 4.17 | 0.537 | –
7 | – | – | – | O=C(c1ccc(Oc2ccccc2F)nc1)N1CCCN(C2CC2)CC1 [Example 31, (4-Cyclopropyl-[1,4]diazepan-1-yl)-[6-(2-fluoro-phenoxy)-pyridin-3-yl]-methanone] | 4 | 39 | 7.59 | 2.4 | –
8 | 9.40 | – | – | O=C(c1ccc(Oc2cccc(F)c2)nc1)N1CCCN(C2CCC2)CC1 [Example 39, (4-Cyclobutyl-[1,4]diazepan-1-yl)-[6-(3-fluoro-phenoxy)-pyridin-3-yl]-methanone] | 1 | 21 | – | – | 8.38
9 | – | – | – | CSc1ccc(Oc2ccc(C(=O)N3CCCN(C4CCC4)CC3)cn2)cc1C [Example 40, (4-Cyclobutyl-[1,4]diazepan-1-yl)-[6-(3-methyl-4-methylsulfanyl-phenoxy)-pyridin-3-yl]-methanone] | 1 | 36 | 13.5 | 1.32 | –
10 | – | – | – | O=C(c1ccc(Oc2ccc(Cl)c(Cl)c2)cn1)N1CCCN(C2CCC2)CC1 [Example 51, (4-Cyclobutyl-[1,4]diazepan-1-yl)-[5-(3,4-dichloro-phenoxy)-pyridin-2-yl]-methanone trifluoroacetic acid salt] | 2 | 60 | 21.9 | 2.29 | –
11 | – | – | – | N#Cc1nc(C(=O)N2CCCN(C3CC3)CC2)ccc1Oc1cccnc1 [Example 56, 6-(4-Cyclopropyl-[1,4]diazepane-1-carbonyl)-3-(pyridin-3-yloxy)-pyridine-2-carbonitrile hydrochloride salt] | 5 | 179 | 13.8 | 2.34 | –
12 | – | – | – | N#Cc1nc(C(=O)N2CCCN(C3CC3)CC2)ccc1Oc1ccc(F)cc1 [Example 59, 6-(4-Cyclopropyl-[1,4]diazepane-1-carbonyl)-3-(4-fluoro-phenoxy)-pyridine-2-carbonitrile] | 3 | – | 26.9 | 3.09 | –
13 | – | – | – | N#Cc1nc(C(=O)N2CCCN(C3CC3)CC2)ccc1Oc1ccccc1F [Example 61, 6-(4-Cyclopropyl-[1,4]diazepane-1-carbonyl)-3-(2-fluoro-phenoxy)-pyridine-2-carbonitrile] | 6 | – | 32.4 | 3.63 | –
14 | – | – | – | O=C(c1ccc(Oc2ccccc2)nc1)N1CCCN(C2CCCC2)CC1 [Example 65, (4-Cyclopentyl-[1,4]diazepan-1-yl)-(6-phenoxy-pyridin-3-yl)-methanone] | 2 | – | 0.661 | 1.15 | –
15 | – | – | – | O=C(c1ccc(Oc2ccc(Cl)c(Cl)c2)nc1)N1CCCN(C2CCCC2)CC1 [Example 66, (4-Cyclopentyl-[1,4]diazepan-1-yl)-[6-(3,4-dichloro-phenoxy)-pyridin-3-yl]-methanone] | 1 | – | 11.5 | 1.12 | –
16 | – | – | – | O=C(c1ccc(Oc2ccc(F)cc2)nc1)N1CCCN(C2CCCC2)CC1 [Example 67, (4-Cyclopentyl-[1,4]diazepan-1-yl)-[6-(4-fluoro-phenoxy)-pyridin-3-yl]-methanone] | 2 | – | 6.76 | 1.35 | –
17 | – | 1.2 | 0.309 | O=C(c1ccc(Oc2ccccc2Cl)nc1)N1CCCN(C2CCC2)CC1 [Example 73, [6-(2-Chloro-phenoxy)-Pyridin-3-yl]-(4-cyclobutyl-[1,4]diazepan-1-yl)-methanone] | 4 | – | – | – | –
18 | – | – | – | O=C(c1ccc(Oc2ccc(F)cc2)nc1)N1CCN(C2CCCC2)CC1 [Example 74, (4-Cyclopentyl-piperazin-1-yl)-[6-(4-fluoro-phenoxy)-pyridin-3-yl]-methanone] | 7 | – | 36.3 | 8.91 | –
19 | 9.48 | 3.24 | – | O=C(c1ccc(Sc2ccc(F)cc2)nc1)N1CCCN(C2CCC2)CC1 [Example 83, (4-Cyclobutyl-[1,4]diazepan-1-yl)-[6-(4-fluoro-phenylsulfanyl)-pyridin-3-yl]-methanone] | – | – | – | – | –
20 | 9.48 | 3.16 | – | O=C(c1ccc(Sc2ccccc2)nc1)N1CCCN(C2CCC2)CC1 [Example 86, (4-Cyclobutyl-[1,4]diazepan-1-yl)-(6-phenylsulfanyl-pyridin-3-yl)-methanone] | 1 | – | – | – | –
21 | – | – | – | Cc1ccccc1Oc1ccc(C(=O)N2CCCN(C3CCC3)CC2)cn1 [Example 102, (4-Cyclobutyl-[1,4]diazepan-1-yl)-(6-o-tolyloxy-pyridin-3-yl)-methanone] | 1 | 17 | 1.2 | 0.2 | –
22 | – | – | – | Cc1ccc(Oc2ccc(C(=O)N3CCCN(C4CCC4)CC3)cn2)cc1 [Example 104, (4-Cyclobutyl-[1,4]diazepan-1-yl)-(6-p-tolyloxy-pyridin-3-yl)-methanone] | 2 | – | 4.27 | 0.724 | –

Row | Compound | Human pA2 [4, 6] | Kb [3, 7] [nM] | Kb [4, 8] [nM] | Ki [1] [nM] | Ki [2] [nM] | Kb [3] [nM] | Kb [4] [nM] | Rat pA2 [3, 5]
23 | O=C(c1ccc(Oc2ccc(Cl)c(Cl)c2)nc1)N1CCCN(C2CCC2)CC1 [Example 14, (4-Cyclobutyl-[1,4]diazepan-1-yl)-[6-(3,4-dichloro-phenoxy)-pyridin-3-yl]-methanone] | 9.26 | – | – | 2 | 10 | – | – | 8.16
24 | O=C(c1ccc(Oc2ccc(Cl)cc2)cn1)N1CCCN(C2CCC2)CC1 [Example 68, [5-(4-Chloro-phenoxy)-pyridin-2-yl]-(4-cyclobutyl-[1,4]diazepan-1-yl)-methanone trifluoroacetic acid salt] | 8.61 | 15.8 | – | 2 | – | – | – | –
25 | O=C(c1ccc(Oc2cccc(Cl)c2)cn1)N1CCCN(C2CCC2)CC1 [Example 70, [5-(3-Chloro-phenoxy)-pyridin-2-yl]-(4-cyclobutyl-[1,4]diazepan-1-yl)-methanone trifluoroacetic acid salt] | 8.72 | 19.1 | – | 2 | – | – | – | –
